Data as given in patent US12577262B2, “Functionalized gold carbene napthaquinone complexes for use in the treatment of cancer” (Board of Regents, The University of Texas System, priority 2019, dated 2026).
Where a name gives a salt, the structure may show the parent alone.

Assays:
[1] = tested on: A549 human lung cancer cell line; test: Cell proliferation MTT assay, Example 3 (Table 5); format: cell-based; conditions: 72 h incubation
Protocol: According to previous literature reports, BSA binding can reduce the cytotoxicity of Au(I) bis-NHC complexes (Zou et al., 2014). […] The non-conjugated alcohol 1 and Auranofin were used as benchmark comparisons. Incubation was carried out for 72 h in all cases. […] A549 cells were harvested and seeded into 96-well culture plates (Costar 07-200-90) in 100 μL of culture medium. The cells were allowed to incubate overnight at 37° C. in the presence of 5% CO2. A549 cells were seeded at a density of 1500 cells/well. […] To each well of a 96 well plate was added 100 μL of the appropriate solution. […] After removal of the medium, the resulting formazan was dissolved in […] DMSO and the respective absorbances were measured at 560-650 nm using a microplate reader (Molecular Devices, Sunnyvale, CA). Absorbance values were corrected for background and then normalized to wells containing untreated cells to allow for plate-to-plate comparisons. The resulting dose response curves were subjected to linear regression analysis (Origin by OriginLab, Inc.) for determination of IC50 values. […] Maximum concentration of DMSO used is 0.1%. This concentration of DMSO was determined to be non-toxic in separate control experiments. […] The stock solution was further diluted 10-fold in RPMI media such that the maximum drug concentration used was 10 μM for the dose dependent MTT assay.

A549 lung cancer cells = test: Cell proliferation, 72 h IC50 (Table 3); format: cell-based, human; conditions: read-out: 72 h IC50, 3-5 separate experiments
L929 fibroblasts = test: Cell proliferation, 72 h IC50 (Table 3); format: cell-based, human
Excerpt: The initial rationale for preparing complexes 1-3 (shown below) involved a systems approach to circumventing the antioxidant network that helps give solid tumors their resiliency.

[2] = tested on: A549 human lung cancer cell line; test: Cell proliferation MTT assay, Example 4 (Table 8); format: cell-based; conditions: 72 h treatment, max DMSO 0.1%
HCT116 Colon = test: Cell proliferation, 72 h IC50 (Table 3); format: cell-based, human; conditions: read-out: 72 h IC50, 3-5 separate experiments
Panc-02 cells = test: CRT translocation to the cell membrane, flow cytometry (percent CRT+ cells); format: cell-based, murine
Protocol: Calreticulin (CRT) translocation from the ER to the cell membrane is a critical mechanistic step in ICD induction. To correlate the findings of ER and mitochondrial stress to ICD induction, murine cancer cell lines (Panc-02 pancreas and CT26 colon) were treated with 3 and assessed for cell membrane CRT translocation (FIG. 4).

A2780 Ovarian = test: Cell proliferation, 72 h IC50 (Table 3); format: cell-based, human; conditions: read-out: 72 h IC50, 3-5 separate experiments
2780CP Ovarian = test: Cell proliferation, 72 h IC50 (Table 3); format: cell-based, human; conditions: read-out: 72 h IC50, 3-5 separate experiments
[3] = tested on: CT26 mouse colorectal cancer cells; conditions: immunized with CT26 cells treated with oxaliplatin at 150 μM; challenged after 7 days
CT26 Colon = conditions: read-out: 72 h IC50, 3-5 separate experiments

Row | Compound | IC50 (A549 lung cancer cells) [µM] | IC50 (HCT116 Colon) [µM] | IC50 (A2780 Ovarian) [µM] | IC50 (2780CP Ovarian) [µM] | also measured
1 | CC(=O)OC[C@H]1O[C@@H]([S-])[C@H](OC(C)=O)[C@@H](OC(C)=O)[C@@H]1OC(C)=O.CCP(CC)CC.[Au+] [Auranofin] | 1.67 | 1.3 |  |  | IC50 [1]: 2.24 µM; cancer selectivity (L929 fibroblasts; L929 fibroblasts in comparison to A549 lung cancer cells): 2.5 fold; IC50 (L929 fibroblasts; read-out: 72 h IC50, L929 Fibroblasts, 72 h, 3-5 separate experiments): 4.2 µM; IC50 [2]: 2.18 µM; CRT translocation to the cell membrane (Panc-02 cells; flow cytometry, 3 at 1 μM, auranofin under the same conditions): ineffective
2 | N.N.[Cl][Pt][Cl] [Cisplatin] | 1.03 |  | 0.33 | 7.1 | 
3 | COc1cccc2c1C(=O)c1c(O)c3c(c(O)c1C2=O)C[C@@](O)(C(=O)CO)C[C@@H]3O[C@H]1C[C@H](N)[C@H](O)[C@H](C)O1 [Doxorubicin•HCl, Doxorubicin] |  |  |  |  | IC50 ([2]; Homo sapiens): 0.131 µM
4 | O=C1[O][Pt]2([NH][C@@H]3CCCC[C@H]3[NH]2)[O]C1=O [Oxaliplatin] | 0.97 | 0.5 | 0.15 | 0.3 | mice remaining tumor-free at the end of the study [3]: 80%; IC50 (CT26 Colon): 2 µM; concentration needed to achieve the same CRT+ signal (Panc-02 cells; same CRT+ signal as 3 at 1 μM): 300 µM
